From patent publication US5196421A, “Excitatory amino acid receptor antagonists in methods for the use thereof” (priority 1992, dated 1993) come the findings set out here.

In assay [1] the target is T1, Strychnine-Insensitive [^3 H]Glycine Binding Sites, washed membranes of rat brain cortex (Rattus norvegicus, UniProt P35439).
T1 construct: washed membranes of rat brain cortex; from tissue; host or cells: brain cortex membranes, male Sprague-Dawley rats (150-175 g)
Kind of assay: biochemical. To be noted: for inhibition at 10 µM: 1 h, read-out: [^3 H]-Glycine Binding % DSPL10 @ 10 μM, 10 μM test compound, 60 minutes on ice. As for the experimental part: (§1) Referring to Table IV, there are shown the results obtained in testing a representative number of these compounds. In Table IV, the activity of the compounds for EAA receptor binding is indicated. Compounds were evaluated for their ability to displace [^3 H]-CGS191755, [^3 H]-glycine, [^3 H]-AMPA and [^3 H]-kainate at a screening concentration of 10 μM.
(§2) Binding assays, except for glycine binding, were performed in accordance with the methods described in Schoepp et al., J. Pharmacology and Exp. Therap., Vol. 255, No. 3, pp. 1301-1308 (1990). For all binding assays, male Sprague-Dawley rats (150-175 g) were used. Displacement of the specific binding of ^3 H]CGS19755 (10 nM) to Triton-X-treated synaptosomal membranes of rat forebrain was used to determine NMDA receptor affinity. Nonspecific binding was determined using 10 μM L-glutamate. Samples were incubated in an ice bath for 30 minutes, and bound ligand was separated from the free ligand by rapid filtration through Whatman GF/B glass fiber filters.
The compounds were examined for their ability to displace [^3 H]-glycine from washed membranes of rat brain cortex according to the methods of Shinohara et al., "Ontogeny of Strychnine-Insensitive [^3 H]Glycine Binding Sites in Rat Forebrain", Neurosci. Lett. 105 (1990) 307-311. In each assay, […] [^3 H]-glycine and 25 μg tissue were incubated with test compounds (10 μM in a total volume of 0.5 ml for 60 minutes on ice; incubations were terminated by centrifugation. Non-specific binding was defined as that remaining in the presence of 10 μM D-serine.

Assay [2] relates to AMPA receptor ([^3 H]AMPA binding, crude membranes of rat forebrain). Nature of the assay: [^3 H]-AMPA displacement, EAA receptor binding. Particulars: 10 μM test compound, [^3 H]AMPA 5 nM, 100 mM KSCN. As for the experimental part:
as §1, §2
The binding of [^3 H]AMPA (5 nM) was conducted with crude membranes of rat forebrain in the presence of 100 mM KSCN, as described by Nielsen et al., "Studies on Receptor-Active Conformations of Excitatory Amino Acid Agonists and Antagonists," Eur. J. Med. Chem. Chim. Ther. 21:433-437 (1986). Nonspecific binding was determined with 10 μM nonlabeled AMPA.

Assay [3] deals with kainate (KA) receptor ([^3 H]Kainate binding, washed synaptosomal membranes from the rat forebrain). Nature of the assay: [^3 H]-kainate displacement, EAA receptor binding. Particulars: 10 μM test compound, [^3 H]Kainate 5 nM, pH 7.4, 30 min. As for the experimental part: as §1, §2
[^3 H]Kainate binding was performed using washed synaptosomal membranes from the rat forebrain, prepared as described by Simon et al., "Binding of [^3 H]Kainic Acid, an Analogue of L-Glutamate, to Brain Membranes," J. Neurochem. 26:141-147 (1976). [^3 H]Kainate (5 nM) was added to 50 mM Tris-HCl buffer (pH 7.4 at 4°) containing 200-300 μg/ml of tissue protein. Samples were incubated for 30 minutes in an ice bath and then rapidly filtered using a Brandel cell harvester and Whatman GF/C filters. Filters were washed twice with 3 ml of cold buffer. Nonspecific binding was determined using 100 μM nonlabeled kainate.

Molecules are shown by their SMILES. “And” between values parts separate entries of the source, which are not always exact repeats. Identical values can stand only once.

With `O=c1[nH]c2cc([N+](=O)[O-])ccc2n2cnnc12` [Compound 17, 7-nitro-1,2,4-triazolo[4,3-a]quinoxalin-4(5H)-one], the inhibition at 10 µM in assay [1] was determined as 52%. In assay [2] (10 µM), the “AMPA % DSPL @ 10 μM” value was 85.1% and 77.4%. Besides, the “KA % DSPL @ 10 μM” value in assay [3] worked out at 34.7%.

Regarding `Cc1nnc2cnc3cc(Cl)c(Cl)cc3n12` [Compound 1, 1-methyl-7,8-dichloro-1,2,4-triazolo[4,3-a]quinoxaline], the inhibition at 10 µM in assay [1] turned out to be 0%. In addition, the “AMPA % DSPL @ 10 μM” value in assay [2] amounted to 35.1%. In assay [3], the “KA % DSPL @ 10 μM” value came to 16.8%.

Take `CCc1nnc2cnc3cc(Cl)c(Cl)cc3n12` [Compound 3, 1-ethyl-7,8-dichloro-1,2,4-triazolo[4,3-a]quinoxaline]: the inhibition at 10 µM in assay [1] was found to be 63%. Further, the “AMPA % DSPL @ 10 μM” value in assay [2] is reported as 7.9%. Further, in assay [3], the “KA % DSPL @ 10 μM” value worked out at 12.0%.

Regarding `Clc1cc2ncc3nnc(-c4ccccc4)n3c2cc1Cl` [Compound 11, 1-phenyl-7,8-dichloro-1,2,4-triazolo[4,3-a]quinoxaline], in assay [1], the inhibition at 10 µM is -3%. Further, the “AMPA % DSPL @ 10 μM” value in assay [2] was found to be 1.7%. In addition, in assay [3], the “KA % DSPL @ 10 μM” value was determined as 9.1%.

As for `CCCc1nnc2c(=O)[nH]c3cc(Cl)c(Cl)cc3n12` [Compound 6, 1-n-propyl-7,8-dichloro-1,2,4-triazolo[4,3-a]quinoxalin-4(5H)-one], the inhibition at 10 µM in assay [1] worked out at 75%. Besides, the “AMPA % DSPL @ 10 μM” value in assay [2] (10 µM) was 77.1% and 85.6%. In addition, the “KA % DSPL @ 10 μM” value in assay [3] was found to be 32.1%.

Turning to `O=c1[nH]c2cc(Cl)cc(Cl)c2n2cnnc12` [Compound 14a, 7,9-dichloro-1,2,4-triazolo[4,3a]quinoxalin-4(5H)-one], in assay [1], the inhibition at 10 µM stood at 87%.

`O=c1[nH]c2cc(C(F)(F)F)ccc2c2ccnn12` [Compound 35, 8-trifluoromethylpyrazolo[1,5-c]quinazolin-5(6H)-one]: the inhibition at 10 µM in assay [1] was found to be 51%. In assay [2], the “AMPA % DSPL @ 10 μM” value turned out to be 54.8%. Also, the “KA % DSPL @ 10 μM” value in assay [3] amounted to 8.4%.

As for `O=c1[nH]c2c(Cl)cccc2c2ccnn12` [Compound 30, 7-Chloropyrazolo[1,5-c]quinazolin-5(6H)-one], in assay [1], the inhibition at 10 µM was determined as 0%. For the same compound, the “AMPA % DSPL @ 10 μM” value in assay [2] was found to be 14.8%. Moreover, the “KA % DSPL @ 10 μM” value in assay [3] was -0.4%.

Take `O=c1[nH]c2cc([N+](=O)[O-])c([N+](=O)[O-])cc2n2cnnc12` [Compound 18, 7,8-dinitro-1,2,4-triazolo[4,3-a]quinoxalin-4(5H)-one]: the inhibition at 10 µM in assay [1] worked out at 50%. Further, the “AMPA % DSPL @ 10 μM” value in assay [2] (10 µM) was 77.4% and 55.0%. Besides, the “KA % DSPL @ 10 μM” value in assay [3] was found to be 15.6%.

Turning to `O=c1[nH]c2cc(Cl)c(Cl)cc2n2cnnc12` [Compound 12a, 7,8-dichloro-1,2,4-triazolo[4,3-a]quinoxalin-4(5H)-one], in assay [1] (10 μM test compound, 60 minutes on ice, 60 min, 10 µM), the “[^3 H]-Glycine Binding % DSPL10 @ 10 μM” value is 79% and 42%. In addition, the “AMPA % DSPL @ 10 μM” value in assay [2] (10 µM) is 64.3% and 67.9%.

With `CCCCc1nnc2cnc3cc(Cl)c(Cl)cc3n12` [Compound 7, 1-n-butyl-7,8-dichloro-1,2,4-triazolo[4,3-a]quinoxaline], the inhibition at 10 µM in assay [1] is -2%. Besides, the “AMPA % DSPL @ 10 μM” value in assay [2] is 4.2%. Besides, the “KA % DSPL @ 10 μM” value in assay [3] is recorded as -6.4%.

With `FC(F)(F)c1nnc2cnc3cc(Cl)c(Cl)cc3n12` [Compound 9, 1-trifluoromethyl-7,8-dichloro-1,2,4-triazolo[4,3-a]quinoxaline], the inhibition at 10 µM in assay [1] is -6%.

On to `O=c1[nH]c2ccc(Cl)cc2c2ccnn12` [Compound 29, 9-Chloropyrazolo[1,5-c]quinazolin 5(6H)-one], for which the inhibition at 10 µM in assay [1] stood at 5%. Also, the “AMPA % DSPL @ 10 μM” value in assay [2] turned out to be 23.1%. Moreover, in assay [3], the “KA % DSPL @ 10 μM” value turned out to be 0.3%.

`Clc1cc2ncc3nccn3c2cc1Cl` [Compound 36, 7,8-dichloroimidazo[1,2-a]quinoxaline]: the inhibition at 10 µM in assay [1] stood at 88%. The “AMPA % DSPL @ 10 μM” value in assay [2] worked out at 53.3%. In addition, the “KA % DSPL @ 10 μM” value in assay [3] worked out at 23.6%.

With `O=c1[nH]c2ccc(Cl)cc2c2nc3ccccc3n12` [Compound 38, chlorobenzimidazo[1,2-a]quinazolin-4(5H)-one], in assay [1], the inhibition at 10 µM worked out at 3%. Also, the “AMPA % DSPL @ 10 μM” value in assay [2] came out at 4.1%. The “KA % DSPL @ 10 μM” value in assay [3] is given as -0.8%.

Turning to `O=[N+]([O-])c1ccc2c(c1)ncc1nnnn12` [Compound 23, 7-nitrotetrazolo[1,5-a]quinoxaline], in assay [1], the inhibition at 10 µM is -1%. The “AMPA % DSPL @ 10 μM” value in assay [2] is reported as 1.0%. Further, the “KA % DSPL @ 10 μM” value in assay [3] is given as -3.8%.

As for `CCCCc1nnc2c(=O)[nH]c3cc(Cl)c(Cl)cc3n12` [Compound 8, 1-n-butyl-7,8-dichloro-1,2,4-triazolo[4,3-a]quinoxalin-4(5H)-one], the inhibition at 10 µM in assay [1] is 60%. Further, in assay [3], the “KA % DSPL @ 10 μM” value amounted to 33.8%.

As for `O=c1[nH]c2ccc([N+](=O)[O-])cc2n2nnnc12` [Compound 22, 8-nitrotetrazolo[1,5-a]quinoxalin-4(5H)-one], the inhibition at 10 µM in assay [1] worked out at 0%. The “AMPA % DSPL @ 10 μM” value in assay [2] amounted to 0.7%. For the same compound, the “KA % DSPL @ 10 μM” value in assay [3] came out at 0.5%.

Regarding `O=c1[nH]c2cc(Cl)c(Cl)cc2c2ccnn12` [Compound 32, 8,9-dichloropyrazolo[1,5-c]quinazolin-5(6H)-one], the “AMPA % DSPL @ 10 μM” value in assay [2] (10 µM) is 4.9% and 9.3%. In assay [3], the “KA % DSPL @ 10 μM” value is -0.1%.

Turning to `CCc1nnc2c(=O)[nH]c3cc(Cl)c(Cl)cc3n12` [Compound 4, 1-ethyl-7,8-dichloro-1,2,4-triazolo[4,3-a]quinoxalin-4(5H)-one], the inhibition at 10 µM in assay [1] is 53%. Moreover, in assay [2] (10 µM), the “AMPA % DSPL @ 10 μM” value was 55.1% and 52.3%. Moreover, the “KA % DSPL @ 10 μM” value in assay [3] was 21.4%.

Turning to `O=c1[nH]c2cc([N+](=O)[O-])ccc2n2nnnc12` [Compound 24, 7-nitrotetrazolo[1,5-a]quinoxalin-4(5H)-one], the inhibition at 10 µM in assay [1] turned out to be 2%. The “AMPA % DSPL @ 10 μM” value in assay [2] is given as 38.4%. The “KA % DSPL @ 10 μM” value in assay [3] came to 2.8%.

Regarding `Cc1nnc2c(=O)[nH]c3cc(Cl)c(Cl)cc3n12` [Compound 2, 1-methyl-7,8-dichloro-1,2,4-triazolo[4,3-a]quinoxalin-4(5H)-one], in assay [1], the inhibition at 10 µM was determined as 18%. In assay [2] (10 µM), the “AMPA % DSPL @ 10 μM” value is 78.3% and 75.1%. Further, in assay [3], the “KA % DSPL @ 10 μM” value was 28.0%.

Take `Brc1ccc2ncc3nncn3c2c1` [Compound 15, 8-bromo-1,2,4-triazolo[4,3-a]quinoxaline]: the inhibition at 10 µM in assay [1] is -3%. Besides, the “AMPA % DSPL @ 10 μM” value in assay [2] was 1.6%. Further, the “KA % DSPL @ 10 μM” value in assay [3] is recorded as -4.3%.

For the compound `O=c1[nH]c2c(Cl)cc(Cl)cc2c2ccnn12` [Compound 33, 7,9-dichloropyrazolo[1,5-c]quinazolin-5(6H)-one], the inhibition at 10 µM in assay [1] was -3%. The “AMPA % DSPL @ 10 μM” value in assay [2] came out at 5.1%. Also, the “KA % DSPL @ 10 μM” value in assay [3] worked out at 7.4%.

Consider `O=c1[nH]c2cc(Cl)c(Cl)cc2n2c(C(F)(F)F)nnc12` [Compound 10, 1-trifluoromethyl-7,8-dichloro-1,2,4-triazolo [4,3-a]quinoxalin-4(5H)-one], for which, in assay [1], the inhibition at 10 µM is 40%. For the same compound, the “AMPA % DSPL @ 10 μM” value in assay [2] (10 µM) was 56.8% and 38.5%. Besides, in assay [3], the “KA % DSPL @ 10 μM” value came out at 12.5%.

Consider `O=c1[nH]c2cc(Cl)ccc2c2ccnn12` [Compound 31, 8-chloropyrazolo[1,5-c]quinazolin-5(6H)-one], for which, in assay [1], the inhibition at 10 µM is 42%. The “AMPA % DSPL @ 10 μM” value in assay [2] was found to be 46%. In addition, in assay [3], the “KA % DSPL @ 10 μM” value came out at 11.5%.

On to `O=c1[nH]c2cc(Cl)c(Cl)cc2n2nnnc12` [Compound 27a, 7,8-dichlorotetrazolo[1,5-a]quinoxalin-4(5H)-one], for which the inhibition at 10 µM in assay [1] stood at 37%. In addition, the “AMPA % DSPL @ 10 μM” value in assay [2] is listed as 38%.

Regarding `O=c1[nH]c2cc([N+](=O)[O-])c([N+](=O)[O-])cc2n2nnnc12` [Compound 25, 7,8-dinitrotetrazolo[1,5-a]quinoxalin-4(5H)-one], the inhibition at 10 µM in assay [1] turned out to be 3%. In addition, the “KA % DSPL @ 10 μM” value in assay [3] (10 µM) is 0.4% and -2.1%.
